Legend:
[1] = system: murine melanoma cell B16-F1 xenograft; experiment: Therapeutic effect on B16-F1 xenograft C57 mice; assay type: in vivo
Method: Evaluation of the inhibition effect of the compound of Example 1 on the growth of murine melanoma cell B16-F1 xenograft on C57 mice.
Compound 1 was formulated into a 5 mg/ml aqueous solution using 0.5% CMC-Na+0.25% (v/v) Polysorbate 80. The administration concentration was 50 mg/kg, and the oral volume for intragastrical administration was 10 ml/kg.
Female C57BL/6J mice for laboratory use were purchased from SINO-BRITISH SIPPR/BK LAB. ANIMAL LTD., CO (Shanghai, China, Certificate No.: SCXK (Shanghai) 2008-0016), and the body weight of mice was from 16 to 20 g when purchased. After the animals were purchased, the test was started after 3 days of adaptive feeding. Feeding conditions: SPF grade. Animal feeding method: 12/12 hours light/dark cycle, temperature 23±1° C., humidity 40-50%, the animals were fed with standard sterilized murine feed, and had free access to food and water.
The C57 mice after adaptive feeding were fasted overnight in a metabolic cage, and divided randomly into the following groups after weighing: blank control group and Compound 1 group, 10 mice per group. The skin preparation on the right flank of C57 mice was carried out one day in advance, B16-F1 cells were subcutaneously inoculated ([…] cells per mouse), and administration was started on the third day after inoculation. Each mouse was intragastrically administrated with Compound 1 (i.g., 10 ml/kg) twice a day, and the blank group was intragastrically administrated with the corresponding solvent. The tumor volume was measured twice a week, the body weight was weighed and the data were recorded.
Excel statistical software was used: the average value was calculated by avg; the SD value was calculated by STDEV; the SEM value was calculated as STDEV/SQRT: the difference between the groups P value was calculated by TTEST.
The calculation formula of tumor volume (V) is: V=½×Llength×Lshort^2
Tumor inhibition rate (%)==(C−T)/C (%)
Wherein V0 and VT are the tumor volumes at the beginning of the test and at the end of the test, respectively. C and T are the average tumor volumes of the Blank group and the test group at the end of the test, respectively.

[2] = system: Smad signaling pathway of TGFβRI; experiment: Inhibition of Smad signaling pathway of TGFβRI (3TP-lux luciferase reporter in HepG2 cells); assay type: cell-based; settings: HepG2, 3TP-lux plasmid, 18 hours; for IC50: Homo sapiens
Method: The inhibition effect of the compounds of the present invention on Smad signaling pathway of TGFβRI was determined by the following in vitro test.
The inhibition effect of the compounds of the present invention on Smad signaling pathway of TGFβRI was determined by the following experimental method:
On a 96-well plate, 100 μL of HepG2 cell (TCHu 72, Cell Bank of Typical Culture Collection Committee of Chinese Academy of Sciences) was seeded on an EMEM medium containing 10% FBS (42360-099, Gibco) in each well. The seeding density is 2.5×10^4 cells/well. The cells were incubated overnight at 37° C., in 5% CO2. Each well was replaced with fresh EMEM medium containing 10% FBS. 0.1 μg of 3TP-lux plasmid (11767, Biovector Science Lab, Inc.) was transfected in each well. The cells were further incubated for 24 hours at 37° C., in 5% CO2. Each well was replaced with 90 μL of EMEM medium containing 0.5% FBS, then the cells were starved for 6 hours. The compounds were formulated as a 20 mM stock solution, which was diluted in gradient to a 400× concentration with 100% DMSO, and further 40-fold diluted with EMEM containing 0.5% FBS. The cell culture plate was taken out, then 10 μl of diluted compound or control (0.25% DMSO) was added to each well respectively. The plate was shaken gently, then incubated for 18 hours in an incubator at 37° C., in 5% CO2. Finally, 100 μl of detection reagent ONE-Glo™ Luciferase Assay (E6110, Promega) was added to each well, and the plate was placed in dark at room temperature for 10 minutes. The chemiluminescence signal values were measured with a Victor 3.0 (PerkinElmer). The IC50 values of the compounds were calculated using Graphpad Prism software based on each concentration of the compound and the corresponding signal value thereof.

NIH3T3 cell = experiment: Inhibition of NIH3T3 cell proliferation (CellTiter-Glo); assay type: cell-based; settings: NIH3T3, 72 hours, 0.5% FBS; for IC50: Mus musculus
Method: The inhibition effect of the compounds of the present invention on NIH3T3 cell proliferation was determined by the following in vitro test.
The inhibition effect of the compounds of the present invention on NIH3T3 cell proliferation was determined by the following experimental method:
On a 96-well white plate with transparent bottom (3903, Corning), 100 μL of NIH3T3 cell (GNM6, Cell Bank of Typical Culture Collection Committee of Chinese Academy of Sciences) was seeded in a DMEM medium containing 10% FBS (SH1-30243.01, GE) in each well. The seeding density is 2000 cells/well. The cells were incubated overnight at 37° C., in 5% CO2. After overnight incubation, each well was replaced with 90 μL of DMEM medium containing 0.5%0 FBS. 10 μl of a 3-fold gradient dilution of the compounds with DMEM medium containing 0.5% FBS was then added, and the plate was incubated for 72 hours in a cell incubator at 37° C., in 5% CO2. Finally, 50 μL of CellTiter-Glo (G7573, Promega) was added to each well. After incubation for 10 minutes at room temperature, the chemiluminescence signal values were measured with a Victor 3 microplate reader (PerkinElmer). The IC50 values of the compounds were calculated using Graphpad Prism software based on each concentration of the compound and the corresponding signal value thereof.

Cc1cccc(-c2nn(C3CCC3)cc2-c2ccnc(-c3ccc(S(C)(=O)=O)cc3)c2)n1 [Example 1, 4-(1-Cyclobutyl-3-(6-methylpyridin-2-yl)-1H-pyrazol-4-yl)-2-(4-(methylsulfonyl)phenyl)pyridine]
Effect on the body weight of the mice ([1]; 50 mg/kg i.g. twice a day): no effect
Tumor volume compared with the blank control group ([1]; Day 19, 50 mg/kg i.g. twice a day): significantly smaller
Average tumor volume d0 ([1]; d0, 50 mg/kg po bid/20d): 0.00 mm^3
Average tumor volume d22 ([1]; d22, 50 mg/kg po bid/20d): 301.53 mm^3
Maximum inhibition rate (%) [2]: 101%
IC50 [2]: 77 nM
IC50 (NIH3T3 cell): 88 nM
Maximum inhibition rate (%) (NIH3T3 cell): 105%

Cc1cccc(-c2nn(C3CC3)cc2-c2ccnc(-c3ccc(S(C)(=O)=O)cc3)c2)n1 [Example 2, 4-(1-Cyclopropyl-3-(6-methylpyridin-2-yl)-1H-pyrazol-4-yl)-2-(4-(methylsulfonyl)phenyl)pyridine]
Maximum inhibition rate (%) [2]: 100%
IC50 [2]: 174 nM
IC50 (NIH3T3 cell): 194 nM
Maximum inhibition rate (%) (NIH3T3 cell): 107%

Reference: patent US10899741B2, “3,4-bipyridyl pyrazole derivative, and preparation method therefor and medical application thereof” (Jiangsu Hengrui Medicine Co., Ltd., priority 2016, dated 2021)
